We go through 1 molecule from publication PMC6934184, “Selective DNA-PKcs inhibition extends the therapeutic index of localized radiotherapy and chemotherapy” (The Journal of Clinical Investigation, 2019).

A word on the inhibition: it is the drop in the measured response relative to a control, in per cent.

In the experiment the target is T1, MAP2K2 (MEK2) (Homo sapiens, UniProt P36507).
T1 construct: purchased Thermo Fisher Scientific (Life Technologies) SelectScreen
Put plainly: SelectScreen Z'LYTE. The conditions noted are these: ATP 100 µM. The format is biochemical. The gist of the method: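 Compound tested in SelectScreen activity assays, Z'LYTE for CSF1R, CDK1/cyclin B and MAP2K6 and Adapta for CAMK1. ATP for CAMK1 was listed as 10, and Km app was used for CSF1R. Results are expressed in percent.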

T1 sequence (P36507 whole entry): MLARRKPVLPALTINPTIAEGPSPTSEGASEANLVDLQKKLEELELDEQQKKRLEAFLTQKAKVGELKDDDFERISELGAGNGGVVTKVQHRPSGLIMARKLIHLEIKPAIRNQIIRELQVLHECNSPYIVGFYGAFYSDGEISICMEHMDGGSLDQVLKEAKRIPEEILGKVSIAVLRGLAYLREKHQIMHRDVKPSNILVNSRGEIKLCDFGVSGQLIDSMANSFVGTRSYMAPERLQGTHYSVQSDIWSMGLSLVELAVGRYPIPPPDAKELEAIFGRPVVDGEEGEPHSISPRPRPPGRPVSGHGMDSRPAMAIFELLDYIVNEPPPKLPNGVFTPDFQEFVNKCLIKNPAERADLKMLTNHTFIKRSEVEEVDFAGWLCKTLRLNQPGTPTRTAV

In the case of `CN(C(=O)CN1CCOCC1)c1ccc2sc3c(-c4cccc5c(=O)cc(N6CC7CCC(C6)O7)oc45)cccc3c2c1` [NU5455], the inhibition at 1 µM was determined as 3.9%.
